Results as given in patent publication US11021454B2, “Type of aryl benzofuran amidated derivative and medical use thereof” (CHINA PHARMACEUTICAL UNIVERSITY, priority 2016, dated 2021).
Marks after values point to notes of the source that are not given here.

Columns and labels:
[1] = Hyperuricemia model induced by potassium oxonate in mice: serum uric acid; format: in vivo, Kunming mice; settings: 2 h after administration, potassium oxonate 300 mg/kg
Experimental: The effect of benzofuran amidated derivatives on blood uric acid in mice is evaluated by an animal model of hyperuricemia induced by potassium oxonate
(1) Test animals: Kunming mice are provided by the Test Animals Center of Yangzhou University. Fasting is given 12 h before the drug administration and during the test period, and drinking water is not restricted during the experiment.
The test drug is prepared with 0.5% sodium carboxymethylcellulose (CMC-Na) at a suitable concentration; the normal control group of mice are intraperitoneally injected with 0.5% sodium carboxymethylcellulose, and the other groups are injected intraperitoneally with potassium oxonate 300 mg/kg. 1 h later, the mice in the normal control group and the model group are intraperitoneally injected with 0.5% sodium carboxymethylcellulose, and the other groups are intraperitoneally injected with 10 mL/kg of the test drug. 2 hours after the drug administration, 500 μL of blood is taken from the eyeball, placed at room temperature for 1 h, centrifuged at 3000 rpm for 5 min, and the upper serum is stored at −4° C. The uric acid level in the serum of the mice is determined according to the method as specified the uric acid detection kit.

[2] = system: LPS-stimulated macrophage RAW 264.7; experiment: Scavenging of superoxide anion in LPS-stimulated macrophage RAW 264.7 (2-OH-E+ by LC-MS); format: cell-based; settings: for Decrease of 2-OH-E+ (%): test drug 10 μM, 0.1 μg/mL LPS, 24 h, RAW 264.7; for scavenging effect on superoxide anion compared to the model group: LPS-stimulated RAW 264.7
Experimental: The antioxidant activity (the ability to scavenge superoxide anion) of the synthesized benzofuran amidated derivative is evaluated by a cell model.
After phagocytosis of bacteria, senescent denatured cells, immune complexes or oxidized low-density lipoproteins, mammalian macrophages cells enter a functional activation state, with enhanced intracellular lysosomal function and increased ROS levels, and they secrete and synthesize inflammatory cytokines. Lipopolysaccharide (LPS) is the main component of the cell wall of Gram-negative bacteria and is the main material basis for its pathogenesis; it can stimulate the production of monocytes/macrophages and release a large amount of reactive oxygen species (mainly including O2^− and H2O2), inflammatory factors such as nitric oxide (NO), IL-1β and Tumor necrosis factor-α (TNF-α) that are involved in the acute phase response of the body, causing inflammatory damage to the body. The present invention utilizes the LPS-stimulated macrophage model to evaluate the antioxidant activity of benzofuran amidated derivatives to scavenge superoxide anion at the cellular level.
(2) LPS: accurately weigh the appropriate amount of LPS, and prepare a sample stock solution of 0.1 g/ml, with DMEM and store at −20° C. for later use.
(3) Probe Stabilizer DTPA: Weigh accurately the amount of DTPA, prepare a 20 mM sample stock solution with DMSO, dilute to 100 µM with PB, and store at 4° C. for use.
(4) HE: Prepare a 20 mmol/L stock solution by dissolving the probe with dimethyl sulfoxide under anaerobic and dark conditions, and store at −80° C. in the dark. Take it out before use, prepare a 10 μmol/L solution with DMEM, place it on ice and store it in the dark.
(1) RAW 264.7 cells are cultured in Petri dishes (60 mm), 4 mL per dish, and incubated in a 5% CO2 incubator with saturated humidity at 37° C. The experiment is divided into blank group, model group and drug-administered group.
(2) After 12 h of cell culture, the supernatant is discarded, and the test drug with a final concentration of 10 μM containing 0.1 μg/mL LPS medium is added, and two parallel holes are provided for each sample to be tested.
(3) Continue to culture in a cell culture incubator for 24 h, the supernatant is discarded, the cells are washed with PBS, and added to DMEM medium containing the probe HE (10 μM) and cultured in the dark for 30 min.
(4) The cells are then washed twice with ice-cold PBS/(100 μM) DTPA, then added 1 mL PBS/(100 μM) DTPA, before the cells are divided into two with a spatula (700 μL and 300 μL) and collected into EP tubes; then they are centrifuged at 13,000 rpm for 10 min at 4° C., the supernatant is removed, and the cell pellet are stored at −80° C. for future use.
(2) Pretreatment of the sample to be tested: 500 μL acetonitrile is added to each EP tube, protected from light, sonicated (10 s, eight cycles, 100 W), and centrifuged at 12,000 g for 10 min at 4° C. The supernatant is transferred to a 1.5 mL EP tube and dried under vacuum for 1 h to obtain a red dried material; the sample is then re-dissolved with 100 μL of mass spectrometry water, and the internal standard substance galantamine is added to make the final concentration of the sample to be tested at 0.1 μM. The sample to be tested is then centrifuged at 13,000 rpm for 10 min at 4° C. and analyzed by LC-MS.

[3] = target: xanthine oxidase (Homo sapiens (Human), UniProt P47989); experiment: Xanthine oxidase inhibitory activity (absorbance at 295 nm, xanthine substrate); format: biochemical; settings: average of four parallel experiments
Sequence of xanthine oxidase (P47989 whole entry, species assumed): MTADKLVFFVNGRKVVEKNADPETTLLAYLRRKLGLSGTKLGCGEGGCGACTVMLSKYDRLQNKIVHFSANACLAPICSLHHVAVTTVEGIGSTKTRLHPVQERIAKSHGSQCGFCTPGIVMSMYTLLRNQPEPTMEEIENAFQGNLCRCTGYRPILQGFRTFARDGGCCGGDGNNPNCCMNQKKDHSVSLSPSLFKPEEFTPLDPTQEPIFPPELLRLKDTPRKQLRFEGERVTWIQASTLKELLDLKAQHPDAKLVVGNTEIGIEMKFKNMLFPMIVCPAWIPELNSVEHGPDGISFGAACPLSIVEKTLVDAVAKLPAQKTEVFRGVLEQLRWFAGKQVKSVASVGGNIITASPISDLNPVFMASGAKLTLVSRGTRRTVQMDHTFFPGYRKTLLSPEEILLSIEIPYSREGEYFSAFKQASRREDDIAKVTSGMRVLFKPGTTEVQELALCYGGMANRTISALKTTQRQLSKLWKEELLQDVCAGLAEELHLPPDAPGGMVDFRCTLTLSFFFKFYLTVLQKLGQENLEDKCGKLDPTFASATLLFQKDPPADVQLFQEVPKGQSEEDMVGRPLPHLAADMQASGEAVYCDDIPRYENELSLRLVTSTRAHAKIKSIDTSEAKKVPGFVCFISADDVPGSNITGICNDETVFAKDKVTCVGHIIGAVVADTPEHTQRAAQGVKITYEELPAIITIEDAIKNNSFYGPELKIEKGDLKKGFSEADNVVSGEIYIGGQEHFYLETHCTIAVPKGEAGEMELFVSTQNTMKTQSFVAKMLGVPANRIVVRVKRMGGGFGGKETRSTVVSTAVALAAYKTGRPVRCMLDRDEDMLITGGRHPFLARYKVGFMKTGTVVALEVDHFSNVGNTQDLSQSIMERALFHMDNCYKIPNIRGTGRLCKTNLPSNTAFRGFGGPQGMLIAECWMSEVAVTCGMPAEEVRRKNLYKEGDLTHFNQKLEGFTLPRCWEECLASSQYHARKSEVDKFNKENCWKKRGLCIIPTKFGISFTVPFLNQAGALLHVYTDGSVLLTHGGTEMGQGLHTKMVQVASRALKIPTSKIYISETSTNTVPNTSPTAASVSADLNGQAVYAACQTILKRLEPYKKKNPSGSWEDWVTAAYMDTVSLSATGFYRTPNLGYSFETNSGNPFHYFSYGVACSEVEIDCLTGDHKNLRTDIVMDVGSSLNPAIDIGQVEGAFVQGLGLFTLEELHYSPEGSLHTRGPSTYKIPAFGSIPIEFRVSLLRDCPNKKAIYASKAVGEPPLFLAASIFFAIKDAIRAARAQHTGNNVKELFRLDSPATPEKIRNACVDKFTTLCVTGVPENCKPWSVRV
Experimental: Determination of Xanthine Oxidase Inhibitory Activity of Aryl Benzofuran Amidated Derivatives and Reagents (Amino Derivatives)
(2) XOD solution: Take 25 U/2.6 mL of XOD, dilute to 0.08 U/mL of XOD working solution with 75 mM PB solution, mix well with a pipette, store on ice for future use;
(3) Substrate preparation: accurately weigh the appropriate amount of xanthine (XA) into 5 mL of 0.1 N NaOH solution, dissolve it ultrasonically, and add 95 mL of 75 mM PB solution to prepare a substrate mother liquor with a final concentration of 0.48 mM, perform vortex mixing for 1 min; it is to be freshly prepared before each experiment;
Use DB to dilute to different concentrations ([…]) before the experiment, and the DMSO content is less than 0.1%.
(§1) Data processing: Data is processed by using Excel analysis and half-inhibitory concentration (IC50) is calculated by using GraphPad Prism 6.0.2.

[4] = DPPH free radical scavenging experiment (antioxidant activity); format: biochemical; settings: average of three parallel experiments; 0.1 mM DPPH, 30 min in the dark, 517 nm
Experimental: The antioxidant activity of the synthesized benzofuran amidated derivative is evaluated by DPPH free radical scavenging experiment.
(1) Preparation of DPPH solution: accurately weigh the appropriate amount of DPPH, add MeOH and perform ultrasonic dissolution to prepare 10 mM stock solution, and store at −20° C. Dilute to 0.1 mM with MeOH before the experiment and store in the dark;
Use MeOH to dilute to different concentrations ([…]) before the experiment.
as §1

[5] = system: Normal hepatocyte LO2; experiment: Inhibition of uric acid production in xanthine-modelled hepatocyte cell model; format: cell-based
Experimental: The effect of benzofuran amidated derivatives on uric acid production is evaluated using a cell model.
(2) Experimental procedure: Normal hepatocyte LO2 are inoculated in a 6-well plate (plate density 1×10^6 cells/mL), and cell experiments are performed after 4 hours of plating.
(3) Pre-treatment of mass spectrometry: take 100 μL of the medium collected, add MeOH 400 μL, CHCl3 100 μL and H2O 300 μL, perform vortex mixing, and centrifuging at 20000 g for 10 min, then take the upper layer for concentration and dry.

Row | Structure (SMILES) | Decrease of 2-OH-E+ (%) [2] [%] | IC50 [3] [µM] | further results
1 | Oc1ncnc2[nH]ncc12 [Allopurinol, reference compound] | – | – | Serum uric acid value ([1]; 20 mg/kg intraperitoneal): 3.18 ± 0.50 mg/dL
2 | COC(=O)[C@H](Cc1ccc(O)c(O)c1)NC(=O)/C=C/c1ccc(O)c2oc(-c3ccc(O)c(O)c3)cc12 [Compound 5a, Methyl (S,E)-3-(3,4-dihydroxyphenyl)-2-(3-(2-(3,4-dihydroxyphenyl)-7-hydroxybenzofuran-4-yl)acrylamido)propanoate] | 78.59 | – | –
3 | COC(=O)[C@@H](Cc1ccc(O)c(O)c1)NC(=O)/C=C/c1ccc(O)c2oc(-c3ccc(O)c(O)c3)cc12 [Compound 5b] | 74.16 | – | Serum uric acid value (mg/dl) ([1]; 20 mg/kg intraperitoneal): 3.87 ± 0.31*^a mg/dl; Serum uric acid value ([1]; 40 mg/kg intraperitoneal): 3.61 ± 0.25 mg/dL; Serum uric acid value ([1]; 80 mg/kg intraperitoneal): 3.30 ± 0.46 mg/dL
4 | COC(=O)[C@H](C)NC(=O)/C=C/c1ccc(O)c2oc(-c3ccc(O)c(O)c3)cc12 [Compound 5c, Methyl (E)-(3-(2-(3,4-dihydroxyphenyl)-7-hydroxybenzofuran-4-yl)acryloyl)-L-alaninate] | 60.54 | – | –
5 | O=C(/C=C/c1ccc(O)c2oc(-c3ccc(O)c(O)c3)cc12)N[C@H](Cc1ccc(O)c(O)c1)C(=O)O [Compound 6b, (R,E)-3-(3,4-dihydroxyphenyl)-2-(3-(2-(3,4-dihydroxyphenyl)-7-hydroxybenzofuran-4-yl)acrylamido) propanoic Acid] | 80.81 | – | –
6 | C[C@H](NC(=O)/C=C/c1ccc(O)c2oc(-c3ccc(O)c(O)c3)cc12)C(=O)O [Compound 6c, (E)-(3-(2-(3,4-dihydroxyphenyl)-7-hydroxybenzofuran-4-yl)acryloyl)-L-alanine] | 41.65 | – | scavenging effect on superoxide anion compared to the model group [2]: obvious scavenging effect
7 | O=C(/C=C/c1ccc(O)c2oc(-c3ccc(O)c(O)c3)cc12)N[C@@H](Cc1ccccc1)C(=O)O [Compound 6d, (E)-(3-(2-(3,4-dihydroxyphenyl)-7-hydroxybenzofuran-4-yl)acryloyl)-L-phenylalanine] | 81.27 | – | –
8 | O=C(/C=C/c1ccc(O)c2oc(-c3ccc(O)c(O)c3)cc12)N[C@@H](Cc1ccc(O)cc1)C(=O)O [Compound 6e, (E)-(3-(2-(3,4-dihydroxyphenyl)-7-hydroxybenzofuran-4-yl)acryloyl)-L-tyrosine] | 83.41 | – | Serum uric acid value ([1]; 20 mg/kg intraperitoneal): 3.82 ± 0.62 mg/dL; Serum uric acid value ([1]; 40 mg/kg intraperitoneal): 3.54 ± 0.26 mg/dL; Serum uric acid value ([1]; 80 mg/kg intraperitoneal): 3.26 ± 0.44 mg/dL
9 | COC(=O)[C@@H](Cc1ccc(OC)c(OC)c1)OC(=O)/C=C/c1ccc(OC)c2oc(-c3ccc(OC)c(OC)c3)cc12 [Compound 7, (2R)-3-(3,4-dimethoxyphenyl)-1-methoxy-1-oxopropan-2-yl (2E)-3-[2-(3,4-dimethoxyphenyl)-7-methoxy-1-benzofuran-4-yl]prop-2-enoate] | – | > 60 | IC50 [4]: > 100 µM
10 | N[C@H](Cc1ccc(O)c(O)c1)C(=O)O [D-dopa] | – | > 60 | –
11 | Cc1nc(-c2ccc(OCC(C)C)c(C#N)c2)sc1C(=O)O [Febuxostat] | – | – | inhibition at 5 µM ([5]; Homo sapiens, L02, 5 μM, LO2 cells, 10 μM xanthine, 24 h, read-out: Inhibition rate (%) of uric acid): 78.7%
12 | C[C@H](N)C(=O)O [L-ala] | – | > 60 | –
13 | N[C@@H](CS)C(=O)O [L-cys] | – | > 60 | –
14 | N[C@@H](Cc1ccc(O)c(O)c1)C(=O)O [L-dopa] | – | > 60 | –
15 | CSCC[C@H](N)C(=O)O [L-met] | – | > 60 | –
16 | N[C@@H](Cc1ccccc1)C(=O)O [L-phe] | – | > 60 | –
17 | N[C@@H](Cc1c[nH]c2ccccc12)C(=O)O [L-trp] | – | > 60 | –
18 | N[C@@H](Cc1ccc(O)cc1)C(=O)O [L-tyr] | – | > 60 | –
19 | O=C(/C=C/c1ccc(O)c2oc(-c3ccc(O)c(O)c3)cc12)O[C@H](Cc1ccc(O)c(O)c1)C(=O)O [Salvianolic acid C, reference compound] | 37.82 | 8.26 | IC50 [4]: 6.87 µM; scavenging effect on superoxide anion compared to the model group [2]: obvious scavenging effect; Inhibition rate (%) of uric acid ([5]; 10 μM, LO2 cells, 10 μM xanthine, 24 h): 15.2%; Inhibition rate (%) of uric acid ([5]; 30 μM, LO2 cells, 10 μM xanthine, 24 h): 24.7%; Inhibition rate (%) of uric acid ([5]; 50 μM, LO2 cells, 10 μM xanthine, 24 h): 31.4%; inhibitory effect on the formation of uric acid in hepatocyte model ([5]; xanthine modeling): significant inhibitory effect
20 | Cc1c(C)c2c(c(C)c1O)CC[C@@](C)(CCC[C@H](C)CCC[C@H](C)CCCC(C)C)O2 [Ve, vitamin E, reference compound] | 53.18 | – | –
